Calls of active or inactive are those of the source. No cut-off for these calls is given here. Bounds are passed on as bounds.

Assay [1] concerns the target T1, Leucine--tRNA ligase, cytoplasmic (Homo sapiens, UniProt Q9P2J5). Description: Inhibition of LRS-dependent mTORC1 activation in HEK293 cells assessed as reduction in leucine-induced mTORC1-mediated S6 Kinase phosphorylation at 200 uM pretreated before leucine stimulation measured after 10 mins by immunoblot analysis. Format: cell-based.
Target sequence in this assay (Q9P2J5 whole entry, looked up): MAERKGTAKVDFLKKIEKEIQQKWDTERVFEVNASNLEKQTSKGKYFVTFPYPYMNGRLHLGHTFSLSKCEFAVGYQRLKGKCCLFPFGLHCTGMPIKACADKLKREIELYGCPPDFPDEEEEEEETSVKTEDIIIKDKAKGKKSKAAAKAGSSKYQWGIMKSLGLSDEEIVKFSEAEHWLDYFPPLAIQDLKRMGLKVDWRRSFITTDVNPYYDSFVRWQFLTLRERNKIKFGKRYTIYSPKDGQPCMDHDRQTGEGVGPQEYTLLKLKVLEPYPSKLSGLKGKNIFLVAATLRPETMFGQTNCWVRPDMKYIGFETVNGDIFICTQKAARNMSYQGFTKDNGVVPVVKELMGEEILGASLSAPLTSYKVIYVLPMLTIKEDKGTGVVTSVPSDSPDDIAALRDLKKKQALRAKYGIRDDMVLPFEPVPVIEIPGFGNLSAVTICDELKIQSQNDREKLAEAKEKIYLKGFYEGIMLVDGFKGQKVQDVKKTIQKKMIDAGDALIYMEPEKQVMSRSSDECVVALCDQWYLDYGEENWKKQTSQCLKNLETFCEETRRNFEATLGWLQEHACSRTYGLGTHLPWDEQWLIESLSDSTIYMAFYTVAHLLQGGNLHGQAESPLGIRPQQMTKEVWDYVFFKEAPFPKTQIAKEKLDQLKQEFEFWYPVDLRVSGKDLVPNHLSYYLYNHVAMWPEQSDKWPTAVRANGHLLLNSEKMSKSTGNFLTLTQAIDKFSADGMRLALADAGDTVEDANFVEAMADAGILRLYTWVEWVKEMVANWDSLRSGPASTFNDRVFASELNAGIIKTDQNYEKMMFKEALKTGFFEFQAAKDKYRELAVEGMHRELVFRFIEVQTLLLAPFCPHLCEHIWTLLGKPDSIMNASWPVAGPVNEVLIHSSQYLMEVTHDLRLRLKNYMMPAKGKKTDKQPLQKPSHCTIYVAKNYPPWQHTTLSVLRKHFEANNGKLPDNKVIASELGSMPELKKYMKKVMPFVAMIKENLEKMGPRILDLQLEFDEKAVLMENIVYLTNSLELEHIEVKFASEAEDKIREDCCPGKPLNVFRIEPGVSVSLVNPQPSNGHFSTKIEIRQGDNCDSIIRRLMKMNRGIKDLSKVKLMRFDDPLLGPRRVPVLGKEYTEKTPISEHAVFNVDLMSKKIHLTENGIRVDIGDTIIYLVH
For the next assay, the system named is A549. Description: Growth inhibition of human A549 cells incubated for 72 hrs by sulforhodamine B assay. In kind it is functional, cell-based. The conditions noted are these: A549, 72 h. On the technique in general: Sulforhodamine B stains cellular protein and so reports cell mass.
The test system of the next assay is HCT-116. Description: Growth inhibition of human HCT116 cells incubated for 72 hrs by sulforhodamine B assay. Format: functional, cell-based. The conditions noted are these: HCT-116, 72 h.
For the next assay, the system named is K562. Description: Growth inhibition of human K562 cells incubated for 72 hrs by sulforhodamine B assay. In kind it is functional, cell-based. The conditions noted are these: K562, 72 h.
A further assay relates to MDA-MB-231. Description: Growth inhibition of human MDA-MB-231 cells incubated for 72 hrs by sulforhodamine B assay. In kind it is functional, cell-based. The conditions noted are these: MDA-MB-231, 72 h.
A further assay concerns SK-HEP1. Description: Growth inhibition of human SKHEP1 cells incubated for 72 hrs by sulforhodamine B assay. In kind it is functional, cell-based. The conditions noted are these: SK-HEP1, 72 h.
In the next assay the test system is SNU-638. Description: Growth inhibition of human SNU638 cells incubated for 72 hrs by sulforhodamine B assay. Format: functional, cell-based. The conditions noted are these: SNU-638, 72 h.
The test system of a further assay is MRC5. Description: Growth inhibition of human MRC5 cells incubated for 72 hrs by sulforhodamine B assay. In kind it is cell-based. The conditions noted are these: MRC5, 72 h.
Assay [2] addresses T1, Leucine--tRNA ligase, cytoplasmic. Description: Inhibition of LRS-dependent mTORC1 activation in HEK293 cells assessed as reduction in leucine-induced mTORC1-mediated S6 Kinase phosphorylation at 100 nM pretreated before leucine stimulation measured after 10 mins by immunoblot analysis. Format: cell-based. Background: In western blotting, separated proteins are transferred to a membrane and probed.
Target sequence in this assay (Q9P2J5 whole entry, looked up): as above

Assay [3] shares this target. Description: Inhibition of LRS-dependent mTORC1 activation in HEK293 cells assessed as reduction in leucine-induced mTORC1-mediated S6 Kinase phosphorylation pretreated before leucine stimulation measured after 10 mins by immunoblot analysis. In kind it is cell-based.
Assay [4] shares this target. Description: Inhibition of LRS canonical enzyme activity in HEK293 cells assessed as effect on enzyme-mediated aminoleucylation. In kind it is cell-based.
Target sequence in this assay (Q9P2J5 whole entry): as the sequence (Q9P2J5 whole entry, looked up) above
The target is the same in assay [5]. Description: Inhibition of LRS-dependent mTORC1 activation in HEK293 cells assessed as reduction in leucine-induced mTORC1-mediated S6 Kinase phosphorylation at 20 to 200 uM pretreated before leucine stimulation measured after 10 mins by immunoblot analysis. In kind it is cell-based.
Target sequence in this assay (Q9P2J5 whole entry, looked up): as above

In the case of `COc1ccc(CNS(=O)(=O)c2ccc(NC(=O)[C@@H](O)CC(C)C)cc2)cc1OC`, in [1], the “inhibition of S6K phosphorylation (qualitative)” value (from here on “inhibition … (qualitative)”) is “Active”.
As for `COc1cc([C@@H]2c3cc4c(cc3[C@@H](O[C@@H]3O[C@@H]5CO[C@@H](C)O[C@H]5[C@H](O)[C@H]3O)[C@H]3COC(=O)[C@H]23)OCO4)cc(OC)c1O` [ETOPOSIDE], the IC50 (as a rule, the concentration that inhibits the measured activity by half) in the assay with A549 was 0.3 µM; in the assay with HCT-116 it was 1.06 µM; in the assay with K562, 0.76 µM; with MDA-MB-231, 1.53 µM; in the assay on SK-HEP1, 0.63 µM; in the assay on SNU-638, 1.05 µM. In the assay with MRC5, this compound yielded an IC50 of 11.7 µM.
On to `CO[C@H]1C[C@@H]2CC[C@@H](C)[C@@](O)(O2)C(=O)C(=O)N2CCCC[C@H]2C(=O)O[C@H]([C@H](C)C[C@@H]2CC[C@@H](O)[C@H](OC)C2)CC(=O)[C@H](C)/C=C(\C)[C@@H](O)[C@@H](OC)C(=O)[C@H](C)C[C@H](C)/C=C/C=C/C=C/1C`, for which the inhibition result in assay [2] is “Active”.
For `COc1ccc(CNS(=O)(=O)c2ccc(NC(=O)[C@@H](N)CC(C)C)cc2)cc1OC`, in assay [1], the “inhibition … (qualitative)” value is “Active”. The IC50 worked out at 44.9 µM in assay [3]; 5.29 µM in the assay with A549; 3.96 µM in the assay on HCT-116; 4.48 µM in the assay on K562; 5.44 µM in the assay on MDA-MB-231; 3.07 µM in the assay on SK-HEP1. For the same compound, the IC50 in the assay with SNU-638 was 6.26 µM; in the assay on MRC5, > 20 µM; in [4], > 800 µM. The inhibition entry in assay [3] is “Dose-dependent effect”.
With `COc1ccc(CNS(=O)(=O)c2ccc(N3C[C@H](CC(C)C)NC3=O)cc2)cc1OC`, the inhibition result in assay [5] is “inactive”.
As for `COc1ccc(CNS(=O)(=O)c2ccc(N3C(=O)N[C@@H](CC(C)C)C3=O)cc2)cc1OC`, the IC50 amounted to 26.4 µM in [3]; 5.54 µM in the assay with A549; 4.28 µM in the assay with HCT-116; 2.86 µM with K562; 5.65 µM in the assay with MDA-MB-231; 2.44 µM with SK-HEP1. In addition, the IC50 in the assay on SNU-638 is 5.22 µM; in the assay with MRC5, > 20 µM; in assay [4] it was > 800 µM. Further, the inhibition entry in assay [3] was “Dose-dependent effect”.
With `CC(C)C[C@H](O)C(=O)NS(=O)(=O)OC[C@H]1O[C@@H](n2cnc3c(N)nc(I)nc32)[C@H](O)[C@@H]1O`, the “inhibition … (qualitative)” value in [1] is “Active”.
Same read-out and setting: the entry for `COc1ccc(CNS(=O)(=O)c2ccc(NC(=O)[C@@H](O)[C@H](O)C(C)C)cc2)cc1OC` is “Active”.

The values above are taken from ChEMBL document CHEMBL4052681, “Discovery of simplified leucyladenylate sulfamates as novel leucyl-tRNA synthetase (LRS)-targeted mammalian target of rapamycin complex 1 (mTORC1) inhibitors” (Bioorg Med Chem, 2017).
